Consider 27 compounds from patent publication US9204653B2, “5-fluoro pyrimidine derivatives” (DOW AGROSCIENCES LLC, priority 2008, dated 2015).

Like-named read-outs stand apart in the source and are kept apart here.

The test system of the experiment is Mycosphaerella graminicola; Anamorph: Septoria tritici; Bayer Code SEPTTR. In words: Leaf blotch of wheat, foliar fungicide treatment, one day protectant (1DP) or three day curative (3DC). The format is in vivo, Septoria tritici on wheat plants (variety Yuma). The following applies: Zymoseptoria tritici, rating of percent disease control.
[1] abbreviates: 24 h, one day protectant (1DP), read-out: SETTTR 1DP 25 ppm.
[2] abbreviates: 24 h, one day protectant (1DP), read-out: SEPTTR 1DP 100 ppm.
Where [3] appears, read: 72 h, three day curative (3DC), read-out: SEPTTR 3DC 25 ppm.
The mark [4] stands for this setting: 72 h, three day curative (3DC), read-out: SEPTTR 3DC 100 ppm.

In the case of `COCCOC(=O)Nc1nc(OCc2ccc(F)cc2)ncc1F` [Compound 280], the pest or weed control at 25 ppm lay in the range of 76 to 100% under setting [1] and 76 to 100% under setting [3]. Besides, the pest or weed control at 100 ppm lay in the range of 76 to 100% under setting [2] and 76 to 100% under setting [4].
Consider `Fc1cnc(OCc2ccccc2)nc1NNc1ccccc1` [Compound 282], for which the pest or weed control at 25 ppm under setting [1] fell in the range of 0 to 25% and the pest or weed control at 25 ppm under setting [3] was in the range of 26 to 50%. The pest or weed control at 100 ppm is, setting by setting: under setting [2], 26 to 50%; under setting [4], 51 to 75%.
On to `O=[N+]([O-])c1ccccc1NNc1nc(OCc2ccc(Cl)c(Cl)c2)ncc1F` [Compound 283], for which the pest or weed control at 25 ppm runs as follows: under setting [1], 51 to 75%; under setting [3], 0 to 25%. Besides, the pest or weed control at 100 ppm fell in the range of 76 to 100% under setting [2] and 26 to 50% under setting [4].
As to `Nc1nc(OCc2ccc(O)cc2)ncc1F` [Compound 284], the pest or weed control at 25 ppm is, setting by setting: under setting [1], 0 to 25%; under setting [3], 0 to 25%. The pest or weed control at 100 ppm under setting [2] was 0 to 25% and the pest or weed control at 100 ppm under setting [4] is 0 to 25%.
Take `C/C=C(C)/C=N/Nc1nc(OCc2cccc(OC)c2)ncc1F` [Compound 285]: the pest or weed control at 25 ppm runs as follows: under setting [1], 51 to 75%; under setting [3], 26 to 50%. Besides, the pest or weed control at 100 ppm was 76 to 100% under setting [2] and 26 to 50% under setting [4].
Regarding `CCc1ccccc1COc1ncc(F)c(N)n1` [Compound 286], the pest or weed control at 25 ppm reads like this: under setting [1], 76 to 100%; under setting [3], 51 to 75%. Moreover, the pest or weed control at 100 ppm is 76 to 100% under setting [2] and 76 to 100% under setting [4].
On to `CCCCCNC(=S)Nc1nc(OCc2ccc(C)cc2)ncc1F` [Compound 287], for which the pest or weed control at 25 ppm runs as follows: under setting [1], 76 to 100%; under setting [3], 76 to 100%. Besides, the pest or weed control at 100 ppm runs as follows: under setting [2], 76 to 100%; under setting [4], 76 to 100%.
Consider `Nc1nc(OCc2ccc(F)cc2F)ncc1F` [Compound 289], for which the pest or weed control at 25 ppm lay in the range of 76 to 100% under setting [1] and 76 to 100% under setting [3]. Also, the pest or weed control at 100 ppm by setting is: under setting [2], 76 to 100%; under setting [4], 76 to 100%.
In the case of `O=C(Nc1ccccc1F)Nc1nc(OCc2ccccc2)ncc1F` [Compound 291], the pest or weed control at 25 ppm runs as follows: under setting [1], 0 to 25%; under setting [3], 0 to 25%. In addition, the pest or weed control at 100 ppm reads like this: under setting [2], 0 to 25%; under setting [4], 26 to 50%.
Consider `CN(/C=N/c1nc(OCc2ccc(F)cc2)ncc1F)Cc1ccccc1` [Compound 292], for which the pest or weed control at 25 ppm is, setting by setting: under setting [1], 76 to 100%; under setting [3], 76 to 100%. Moreover, the pest or weed control at 100 ppm under setting [2] was in the range of 76 to 100% and the pest or weed control at 100 ppm under setting [4] fell in the range of 76 to 100%.
As for `O=C(NNc1nc(OCc2ccccc2)ncc1F)c1ccccc1` [Compound 293], the pest or weed control at 25 ppm reads like this: under setting [1], 0 to 25%; under setting [3], 0 to 25%. The pest or weed control at 100 ppm under setting [2] was 0 to 25% and the pest or weed control at 100 ppm under setting [4] lay in the range of 0 to 25%.
Regarding `COc1cccc(COc2ncc(F)c(NNC3CCCCC3)n2)c1` [Compound 294], the pest or weed control at 25 ppm under setting [1] lay within 0 to 25% and the pest or weed control at 25 ppm under setting [3] lay within 0 to 25%. For the same compound, the pest or weed control at 100 ppm runs as follows: under setting [2], 76 to 100%; under setting [4], 76 to 100%.
Turning to `CCOC(=O)COC(=O)Nc1nc(OCc2ccc(F)cc2)ncc1F` [Compound 295], the pest or weed control at 25 ppm fell in the range of 76 to 100% under setting [1] and 76 to 100% under setting [3]. Besides, the pest or weed control at 100 ppm fell in the range of 76 to 100% under setting [2] and 76 to 100% under setting [4].
With `Cc1cc(Oc2ncc(F)c(N)n2)cc(C)n1` [Compound 296], the pest or weed control at 25 ppm was 0 to 25% under setting [1] and 0 to 25% under setting [3]. The pest or weed control at 100 ppm under setting [2] lay in the range of 0 to 25% and the pest or weed control at 100 ppm under setting [4] is 26 to 50%.
For the compound `O=C(Nc1nc(OCc2ccccc2)ncc1F)OCc1ccccc1` [Compound 298], the pest or weed control at 25 ppm is 76 to 100% under setting [1] and 76 to 100% under setting [3]. For the same compound, the pest or weed control at 100 ppm under setting [2] is 76 to 100% and the pest or weed control at 100 ppm under setting [4] fell in the range of 76 to 100%.
As for `COc1ccccc1COc1ncc(F)c(N)n1` [Compound 300], the pest or weed control at 25 ppm is, setting by setting: under setting [1], 76 to 100%; under setting [3], 76 to 100%. For the same compound, the pest or weed control at 100 ppm by setting is: under setting [2], 76 to 100%; under setting [4], 76 to 100%.
As for `C/C(=N\Nc1nc(OCc2ccc(C)cc2)ncc1F)c1ccc(Cl)nc1` [Compound 301], the pest or weed control at 25 ppm is, setting by setting: under setting [1], 26 to 50%; under setting [3], 51 to 75%. For the same compound, the pest or weed control at 100 ppm lay in the range of 26 to 50% under setting [2] and 76 to 100% under setting [4].
As for `CN(C)/C=N/c1nc(OCc2cccc(N)c2)ncc1F` [Compound 303], the pest or weed control at 25 ppm by setting is: under setting [1], 26 to 50%; under setting [3], 51 to 75%. Moreover, the pest or weed control at 100 ppm lay within 76 to 100% under setting [2] and 76 to 100% under setting [4].
Consider `COc1cccc(COc2ncc(F)c(NNc3ccccc3)n2)c1` [Compound 306], for which the pest or weed control at 25 ppm runs as follows: under setting [1], 0 to 25%; under setting [3], 26 to 50%. The pest or weed control at 100 ppm under setting [2] lay in the range of 76 to 100% and the pest or weed control at 100 ppm under setting [4] was 26 to 50%.
Take `Nc1nc(OCc2cn3ccccc3n2)ncc1F` [Compound 307]: the pest or weed control at 25 ppm is, setting by setting: under setting [1], 76 to 100%; under setting [3], 76 to 100%. In addition, the pest or weed control at 100 ppm was in the range of 76 to 100% under setting [2] and 76 to 100% under setting [4].
Take `Nc1nc(OCc2ccnc(Cl)c2)ncc1F` [Compound 308]: the pest or weed control at 25 ppm under setting [1] lay within 76 to 100% and the pest or weed control at 25 ppm under setting [3] lay within 76 to 100%. For the same compound, the pest or weed control at 100 ppm by setting is: under setting [2], 76 to 100%; under setting [4], 76 to 100%.
With `COc1ccccc1COc1ncc(F)c(NC(C)=O)n1` [Compound 309], the pest or weed control at 25 ppm fell in the range of 76 to 100% under setting [1] and 76 to 100% under setting [3]. Also, the pest or weed control at 100 ppm is, setting by setting: under setting [2], 76 to 100%; under setting [4], 76 to 100%.
Take `Nc1nc(ON=C(c2ccccc2)c2ccccc2)ncc1F` [Compound 312]: the pest or weed control at 25 ppm under setting [1] was in the range of 76 to 100% and the pest or weed control at 25 ppm under setting [3] was in the range of 76 to 100%. In addition, the pest or weed control at 100 ppm by setting is: under setting [2], 76 to 100%; under setting [4], 76 to 100%.
Regarding `CCOC(=O)Nc1nc(OCc2cccc(C#N)c2)ncc1F` [Compound 314], the pest or weed control at 25 ppm under setting [1] was 76 to 100% and the pest or weed control at 25 ppm under setting [3] is 76 to 100%. For the same compound, the pest or weed control at 100 ppm runs as follows: under setting [2], 76 to 100%; under setting [4], 76 to 100%.
Consider `COCCCOc1ncc(F)c(N)n1` [Compound 315], for which the pest or weed control at 25 ppm runs as follows: under setting [1], 51 to 75%; under setting [3], 76 to 100%. In addition, the pest or weed control at 100 ppm under setting [2] fell in the range of 76 to 100% and the pest or weed control at 100 ppm under setting [4] lay in the range of 76 to 100%.
As to `COc1ccccc1COc1ncc(F)c(/N=C2\CCCCN2C)n1` [Compound 317], the pest or weed control at 25 ppm under setting [1] was in the range of 51 to 75% and the pest or weed control at 25 ppm under setting [3] is 26 to 50%. In addition, the pest or weed control at 100 ppm is, setting by setting: under setting [2], 76 to 100%; under setting [4], 76 to 100%.
`Cn1nc(-c2ccccc2)nc1-c1ccccc1COc1ncc(F)c(N)n1` [Compound 320]: the pest or weed control at 25 ppm runs as follows: under setting [1], 0 to 25%; under setting [3], 26 to 50%. The pest or weed control at 100 ppm was in the range of 0 to 25% under setting [2] and 26 to 50% under setting [4].
